Assay results from article PMC13586308, “Cell type–selective targeting by heterobifunctional protein binders via in-cell enrichment” (Nature Communications, 2026).
Read-outs that look alike come from different tables or passages of the source.

Assays:
BRD3BD2 = target: T1, BRD3BD2 (Homo sapiens, UniProt Q15059); assay: competitive FP assay, BRD3 BD2 -/+ FKBP12; assay type: binding
T1 construct: to the isolated BD1 and BD2 domains of BRD2, BRD3 and BRD4

MV4-11 cells = assay: CellTiter-Glo cell viability, MV4-11; assay type: cell-based, human; conditions: five days, without FKBP12 PROTAC; for IC50: Homo sapiens, MV4-11, 120 h, read-out: Cell toxicity (MV4-11) - FKBP12 PROTAC IC50
[1] = target: T2, His-BRD4^BD1 + eGFP-FKBP12 (Homo sapiens, UniProt O60885+P62942); assay: HTRF ternary complex formation BRD4 BD1 + EGFP-FKBP12; assay type: binding; conditions: eGFP-FKBP12 5 µM, His-BRD4^BD1 100 nM; read-out: HTRF BRD4^BD1 + GFP-FKBP12 Kd
T2 construct: the His6-tag of the respective BD1 or BD2 domain of BRD4 and EGFP-labeled FKBP12

[2] = target: T3, His-BRD4^BD2 + eGFP-FKBP12 (Homo sapiens, UniProt O60885+P62942); assay: HTRF ternary complex formation BRD4 BD2 + EGFP-FKBP12; assay type: binding; conditions: eGFP-FKBP12 5 µM, His-BRD4^BD2 100 nM; read-out: HTRF BRD4^BD2 + GFP-FKBP12 Kd
T3 construct: the His6-tag of the respective BD1 or BD2 domain of BRD4 and EGFP-labeled FKBP12

MYC mRNA = assay: quantitative RT-PCR of MYC mRNA, MV4-11; assay type: cell-based, human; conditions: Homo sapiens, 6 h; MV4-11, six hours, without FKBP12 PROTAC; read-out: MYC mRNA levels IC50
FKBP12 [3] = target: T4, FKBP12 (Homo sapiens, UniProt P62942); assay: NanoBRET FKBP12 in intact HEK293 cells; assay type: cell-based
FKBP12 [4] = target: T4, FKBP12; assay: competitive fluorescence polarization assay, binding to FKBP12; conditions: competitive FP assay
BRD4^BD1 = target: T5, BRD4^BD1 (Homo sapiens, UniProt O60885); assay: competitive fluorescence polarization assay, BRD4 BD1 -/+ presenter protein; assay type: binding; conditions: for α BRD4^BD1 (binding cooperativity factor): ratio of binding in absence or presence of FKBP12
T5 construct: to the isolated BD1 and BD2 domains of BRD2, BRD3 and BRD4

BRD4 43-463 Y390A [5] = target: BRD4 43-463 Y390A (Homo sapiens, UniProt O60885, Y390A); assay: competitive FP assay, BRD4 tandem construct Y390A; assay type: binding
BRD4 43-463 Y390A [6] = assay: competitive FP assay, BRD4 tandem construct Y390A; assay type: binding
BRD2BD2 = BRD2BD2 (Homo sapiens, UniProt P25440); assay: competitive FP assay, BRD2 BD2 -/+ FKBP12; assay type: binding
Chain of BRD2BD2 (P25440 344-453 limits assumed): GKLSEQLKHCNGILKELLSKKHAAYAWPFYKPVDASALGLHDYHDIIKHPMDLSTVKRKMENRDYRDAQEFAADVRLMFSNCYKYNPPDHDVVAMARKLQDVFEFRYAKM

BRD3BD1 = target: T6, BRD3BD1 (Homo sapiens, UniProt Q15059); assay: competitive FP assay, BRD3 BD1 -/+ FKBP12; assay type: binding
T6 construct: to the isolated BD1 and BD2 domains of BRD2, BRD3 and BRD4
T6 sequence (Q15059 34-140 limits assumed): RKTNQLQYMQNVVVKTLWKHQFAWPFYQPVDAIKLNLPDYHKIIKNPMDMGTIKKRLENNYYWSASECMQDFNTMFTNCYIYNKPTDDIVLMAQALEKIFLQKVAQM

BRD4 43-463 = BRD4 43-463 (Homo sapiens, UniProt O60885); assay: competitive FP assay, BRD4 tandem bromo domain construct; assay type: binding
INA-6 cells = assay: cell viability, INA-6 FKBP12 knockout or NTC; assay type: cell-based, human; conditions: for IC50: Homo sapiens, INA-6
BRD2BD1 = target: T7, BRD2BD1 (Homo sapiens, UniProt P25440); assay: competitive FP assay, BRD2 BD1 -/+ FKBP12; assay type: binding
T7 construct: to the isolated BD1 and BD2 domains of BRD2, BRD3 and BRD4
T7 sequence (P25440 74-180 limits assumed): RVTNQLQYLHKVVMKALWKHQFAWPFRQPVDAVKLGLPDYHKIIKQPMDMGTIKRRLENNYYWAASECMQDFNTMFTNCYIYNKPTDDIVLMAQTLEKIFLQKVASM

BRD4 43-463 Y97A [7] = assay: competitive FP assay, BRD4 tandem construct Y97A; assay type: binding
BRD4 43-463 Y97A [8] = target: BRD4 43-463 Y97A (Homo sapiens, UniProt O60885, Y97A); assay: competitive FP assay, BRD4 tandem construct Y97A; assay type: binding
BRD4 = target: T8, BRD4 (Homo sapiens, UniProt O60885); assay: NanoBRET BRD4, transient BRD4-NanoLuc in HEK293T cells; assay type: cell-based; conditions: intact HEK293 cells
T8 construct: full-length BRD4 fused to NanoLuc at N terminus; expressed in transfected cells; host or cells: HEK293T
Procedure, shortened: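 BRD4 engagement measured in HEK293T cells transiently expressing N-terminal NanoLuc-BRD4 (20 h), with BRD Tracer-02 at its KD concentration. Cells equilibrated with serially diluted inhibitors for 2 h at 37 °C. Donor 450 nm/acceptor 610 nm BRET read; IC50 from normalized 3-parameter fit.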

[9] = 15 µM FKBP12, read-out: Binding to BRD3BD2 + FKBP12 Kd
[10] = absence of FKBP12, read-out: Binding to BRD3BD2 - FKBP12 Kd
[11] = 15 µM FKBP51FK1, read-out: Binding to BRD4BD1 + FKBP51FK1 Kd
[12] = absence of FKBP12, 2 nM JQ1-FL tracer, read-out: Binding to BRD4^BD1 - FKBP12 Kd
[13] = absence of FKBP51FK1 (SI Table 3), read-out: Binding to BRD4BD1 - FKBP51FK1 Kd
[14] = presence of 15 µM FKBP12, read-out: Binding to BRD4^BD1 + FKBP12 Kd (converted)
[15] = values quoted in rebuttal letter (earlier version of Tab. 1), read-out: binding to BRD4BD1 + FKBP12
[16] = Binding to BRD4 43-463 Y390A + FKBP12 Kd, 15 µM FKBP12
[17] = 15 µM FKBP12, read-out: Binding to BRD2BD2 + FKBP12 Kd
[18] = absence of FKBP12, read-out: Binding to BRD2BD2 - FKBP12 Kd
[19] = 15 µM FKBP12, read-out: Binding to BRD3BD1 + FKBP12 Kd
[20] = absence of FKBP12, read-out: Binding to BRD3BD1 - FKBP12 Kd
[21] = Binding to BRD4 43-463 + FKBP12 Kd, 15 µM FKBP12
[22] = Binding to BRD4 43-463 - FKBP12 Kd, absence of FKBP12
[23] = FKBP12 knockout cells, read-out: Cell toxicity INA-6 FKBP12 KO IC50
[24] = nontargeted control (NTC) cells, read-out: Cell toxicity INA-6 NTC IC50
[25] = 15 µM FKBP12, read-out: Binding to BRD2BD1 + FKBP12 Kd
[26] = absence of FKBP12, read-out: Binding to BRD2BD1 - FKBP12 Kd
[27] = Binding to BRD4 43-463 Y97A + FKBP12 Kd, 15 µM FKBP12
[28] = Binding to BRD4 43-463 Y97A - FKBP12 Kd, absence of FKBP12

T1 sequence (Q15059 306-415 limits assumed): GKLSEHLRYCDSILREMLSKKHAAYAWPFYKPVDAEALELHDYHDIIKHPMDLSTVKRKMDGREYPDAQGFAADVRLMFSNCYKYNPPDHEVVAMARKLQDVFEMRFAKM

Row | Structure (SMILES) | α BRD3BD2 (BRD3BD2) | Kd (BRD3BD2; [9]) [nM] | Kd (BRD3BD2; [10]) [nM] | IC50 (MV4-11 cells) [nM] | Kd [1] [nM] | Kd [2] [nM] | IC50 (MYC mRNA) [nM] | IC50 (FKBP12 [3]) [nM] | Kd (FKBP12 [4]) [nM] | Kd (BRD4^BD1; [11]) [nM] | Kd (BRD4^BD1; [12]) [nM] | Kd (BRD4^BD1; [13]) [nM] | Kd (BRD4^BD1; [14]) [nM] | α BRD4^BD1 (binding cooperativity factor) (BRD4^BD1) | Kd (BRD4 43-463 Y390A [5]; [16]) [nM] | Kd (BRD4 43-463 Y390A [5]; absence of FKBP12) [nM] | α BRD4 43-463 Y390A (BRD4 43-463 Y390A [6]) | α BRD2BD2 (BRD2BD2) | Kd (BRD2BD2; [17]) [nM] | Kd (BRD2BD2; [18]) [nM] | also measured
1 | Cc1sc2c(c1C)C(c1ccc(Cl)cc1)=NC(CC(=O)NCCOCCn1cc(COCC3CN(C(C)c4ccccn4)C(=O)C4CCCC3N4S(=O)(=O)c3cc(Cl)cc(Cl)c3)nn1)c1nnc(C)n1-2 (stereo not drawn) [a1dj] | 1.1 | 150 ± 30 | 170 ± 50 | 0.09 | 15 ± 3 | 30 ± 7 | 5 | 2.6 | 0.4 | 680 ± 100 | 470 ± 60 | 250 ± 80 | 39 | 12 | 9 ± 1 | 106 ± 7 | 12 | 2.9 | 48 ± 17 | 140 ± 65 | Cell toxicity (MV4-11) - FKBP12 PROTAC IC50 (MV4-11 cells): sub-nanomolar; Kd (BRD4^BD1; [15]): 32 nM; Kd (BRD3BD1; [19]): 25 ± 3 nM; Kd (BRD3BD1; [20]): 290 ± 35 nM; Kd (BRD4 43-463; [21]): 31 ± 2 nM; Kd (BRD4 43-463; [22]): 266 ± 16 nM; Cell toxicity INA-6 FKBP12 KO IC50 (INA-6 cells; FKBP12 knockout cells): hardly observable; IC50 (INA-6 cells; [23]): 480 nM; IC50 (INA-6 cells; [24]): 0.4 nM; Cell toxicity INA-6 NTC IC50 (INA-6 cells; nontargeted control (NTC) cells): sub-nanomolar; α BRD2BD1 (BRD2BD1): 16; Kd (BRD2BD1; [25]): 38 ± 6 nM; Kd (BRD2BD1; [26]): 610 ± 90 nM; α BRD4 43-463 Y97A (BRD4 43-463 Y97A [7]): 1.2; Kd (BRD4 43-463 Y97A [8]; [27]): 84 ± 10 nM; Kd (BRD4 43-463 Y97A [8]; [28]): 100 ± 17 nM; IC50 (BRD4): 653 nM
2 | Cc1sc2c(c1C)C(c1ccc(Cl)cc1)=NC(CC(=O)N1CCC3(CC1)CC(n1cc(C4CN(Cc5ccccn5)C(=O)C5CCCC4N5S(=O)(=O)c4cc(Cl)cc(Cl)c4)nn1)C3)c1nnc(C)n1-2 (stereo not drawn) [a13c] | 0.3 | 3000 ± 350 | 950 ± 100 | 7.7 | 13 ± 2 | 300 ± 30 | 2.8 | 76 | 1.7 | 870 ± 100 | 4600 ± 800 | 1500 ± 450 | 35 | 131 | 15 ± 2 | 860 ± 140 | 57 | 1.6 | 600 ± 100 | 960 ± 350 | Kd (BRD4^BD1; [15]): 20 nM; α BRD3BD1 (BRD3BD1): 46; Kd (BRD3BD1; [19]): 56 ± 5 nM; Kd (BRD3BD1; [20]): 2600 ± 1000 nM; α BRD4 43-463 (BRD4 43-463): 20; Kd (BRD4 43-463; [21]): 39 ± 3 nM; Kd (BRD4 43-463; [22]): 790 ± 120 nM; Cell toxicity INA-6 FKBP12 KO IC50 (INA-6 cells; FKBP12 knockout cells): hardly observable; IC50 (INA-6 cells; [23]): > 1600 nM; IC50 (INA-6 cells; [24]): 13 nM; α BRD2BD1 (BRD2BD1): 34; Kd (BRD2BD1; [25]): 100 ± 14 nM; Kd (BRD2BD1; [26]): 3400 ± 1600 nM; α BRD4 43-463 Y97A (BRD4 43-463 Y97A [7]): 1.2; Kd (BRD4 43-463 Y97A [8]; [27]): 670 ± 90 nM; Kd (BRD4 43-463 Y97A [8]; [28]): 800 ± 110 nM; IC50 (BRD4): 9060 nM
3 | Cc1sc2c(c1C)C(c1ccc(C#CCNC(=O)COCCn3cc(C4CN(Cc5ccccn5)C(=O)C5CCCC4N5S(=O)(=O)c4cc(Cl)cc(Cl)c4)nn3)cc1)=NC(CC(=O)OC(C)(C)C)c1nnc(C)n1-2 (stereo not drawn) [b3c] | 3.8 | 26 ± 6 | 100 ± 30 | 0.06 | 1 ± 0.6 | 8 ± 3 | 2 | 29 | 3.7 | 50 ± 17 | 130 ± 20 | 73 ± 20 | 8 | 16 | 1.7 ± 0.5 | 25 ± 4 | 15 | 38 | 4 ± 2 | 150 ± 50 | Cell toxicity (MV4-11) - FKBP12 PROTAC IC50 (MV4-11 cells): sub-nanomolar; α BRD3BD1 (BRD3BD1): 2.7; Kd (BRD3BD1; [19]): 13 ± 3 nM; Kd (BRD3BD1; [20]): 35 ± 7 nM; α BRD4 43-463 (BRD4 43-463): 5.6; Kd (BRD4 43-463; [21]): 14 ± 2 nM; Kd (BRD4 43-463; [22]): 79 ± 5 nM; IC50 (INA-6 cells; [23]): 90 nM; IC50 (INA-6 cells; [24]): 1.8 nM; concentration inducing reduced cell viability in FKBP12-negative cells (INA-6 cells; INA-6 FKBP12 knockout): ≥ 100 nM; α BRD2BD1 (BRD2BD1): 8.2; Kd (BRD2BD1; [25]): 9 ± 4 nM; Kd (BRD2BD1; [26]): 74 ± 20 nM; α BRD4 43-463 Y97A (BRD4 43-463 Y97A [7]): 8.1; Kd (BRD4 43-463 Y97A [8]; [27]): 22 ± 3 nM; Kd (BRD4 43-463 Y97A [8]; [28]): 178 ± 20 nM; IC50 (BRD4): 194 nM
